In patent publication US20130196986A1 (priority 2010, published 2013):

Molecular target: T1, P2X7 receptor (Homo sapiens, UniProt Q99572)
T1 construct: stably expressing the full length P2X7 receptor; expressed in transfected cells
T1 sequence (Q99572 1-595): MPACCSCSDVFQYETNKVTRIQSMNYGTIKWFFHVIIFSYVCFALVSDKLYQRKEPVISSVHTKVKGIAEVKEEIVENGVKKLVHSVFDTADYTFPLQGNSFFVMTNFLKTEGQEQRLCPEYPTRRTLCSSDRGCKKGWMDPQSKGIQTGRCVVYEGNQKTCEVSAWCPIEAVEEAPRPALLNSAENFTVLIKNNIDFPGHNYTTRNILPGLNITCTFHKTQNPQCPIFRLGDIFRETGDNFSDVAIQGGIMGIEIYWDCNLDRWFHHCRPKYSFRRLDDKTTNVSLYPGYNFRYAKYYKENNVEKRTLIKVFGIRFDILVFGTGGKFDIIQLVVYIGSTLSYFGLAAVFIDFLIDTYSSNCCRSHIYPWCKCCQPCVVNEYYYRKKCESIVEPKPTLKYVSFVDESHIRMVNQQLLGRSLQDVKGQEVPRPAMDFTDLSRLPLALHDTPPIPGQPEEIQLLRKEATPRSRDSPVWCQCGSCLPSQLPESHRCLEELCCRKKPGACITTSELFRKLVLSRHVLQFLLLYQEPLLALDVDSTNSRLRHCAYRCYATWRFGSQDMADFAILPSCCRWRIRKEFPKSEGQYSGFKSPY
Test: Ca++ flux assay (FLIPR) in P2X7-HEK-293 cell line stably expressing the full length P2X7 receptor, Bz-ATP activation
Type: cell-based
Conditions: P2X7-HEK-293 cells; agonist Bz-ATP; fluorescence as total area over 90 seconds; read-out: P2X7 Ca Flux hu IC50
Method: The ability of Triazolopyrazinone Compounds to inhibit P2X7 function can be determined in Ca^++ flux assay using a P2X7-HEK-293 cell line stably expressing the full length P2X7 receptor. The assay protocol is as described in Cheewatrakoolpong et al., Biochem. Biophys. Res. Commun. 332:17-27 (2005) with minor modification, and is as summarized hereinafter. Briefly, cells were plated in poly-D-lysine-coated wells, and incubated at 37° C. for 24 hours. Cells were then incubated for 1 hour with a loading buffer which contains a dye sensitive to changes in Ca^++ concentration (lx Calcium Plus no wash dye from Molecular Devices, Sunnyvale, Calif.). The test compounds were added to the wells in the dye loading step. Plates containing the wells were transferred to a Fluorometric Imaging Plate Reader (Molecular Devices, Sunnyvale, Calif.). The cells were activated by the addition of the P2X7 receptor agonist 2′(3) —O-(4-benzoylbenzoyl)adenosine 5′-triphosphate (Bz-ATP from Sigma-Aldrich, St. Louis, Mo.), and the fluorescence was monitored for 90 seconds. The fluorescent signal was determined as the total area over the 90 second run time. Using this protocol, representative Triazolopyrazinone Compounds, compounds 1471 were tested. Tables 3 to 6 show the concentration at which 50% of the maximum response in the Ca^++ was inhibited (IC50) for each of the test compounds.

SMILES | IC50 [nM]
Cc1c(Cl)cccc1-n1ccn2c(SCc3ccccc3B(O)O)nnc2c1=O [Compound 24, 2-((7-(3-chloro-2-methylphenyl)-8-oxo-7,8-dihydro-[1,2,4]triazolo[4,3-a]pyrazin-3-ylthio)rnethyl)phenylboronic acid] | 1010
Cc1c(Cl)cccc1-n1ccn2c(SCc3ccccc3-c3cccs3)nnc2c1=O [Compound 40, 7-(3-chloro-2-methylphenyl)-3-(2-(thiophen-2-yl)benzylthio)-[1,2,4]triazolo[4,3-a]pyrazin-8(7H)-one] | 45.8
Cc1c(-n2ccn3c(SCc4cc(Cl)cc(Cl)c4)nnc3c2=O)cccc1C(F)(F)F [Compound 69, 3-(3,5-dichlorobenzylthio)-7-(2-methyl-3-(trifluoromethyl)phenyl)-[1,2,4]triazolo[4,3-a]pyrazin-8(7H)-one] | 188
Cc1c(Cl)cccc1-n1ccn2c(SCc3ccccc3Cn3cncn3)nnc2c1=O [Compound 38, 3-(2-((1H-1,2,4-triazol-1-yl)methyl)benzylthio)-7-(3-chloro-2-methylphenyl)-[1,2,4]triazolo[4,3-a]pyrazin-8(7H)-one] | 1440
Cc1c(Cl)cccc1-n1ccn2c(S(=O)(=O)Cc3ccccc3Cl)nnc2c1=O [Compound 134, 7-(3-chloro-2-methylphenyl)-3-(2-chlorobenzylsulfonyl)-[1,2,4]triazolo[4,3-a]pyrazin-8(7H)-one] | 23.2
Cc1c(Cl)cccc1-n1ccn2c(NC(c3ccccc3)c3ccccc3)nnc2c1=O [Compound 167, 3-(benzhydrylamino)-7-(3-chloro-2-methylphenyl)-[1,2,4]triazolo[4,3-a]pyrazin-8(7H)-one] | 1040
Cc1c(Cl)cccc1-n1ccn2c(SCc3cccc(C(F)(F)F)c3)nnc2c1=O [Compound 89, 7-(3-chloro-2-methylphenyl)-3-(3-(trifluoromethyl)benzylthio)-[1,2,4]triazolo[4,3-a]pyrazin-8(7H)-one] | 581
Cc1c(Cl)cccc1-n1ccn2c(SCc3ccc(C(C)C)cc3)nnc2c1=O [Compound 104, 7-(3-chloro-2-methylphenyl)-3-(4-isopropylbenzylthio)-[1,2,4]triazolo[4,3-a]pyrazin-8(7H)-one] | 2740
[2H]c1c([2H])c([2H])c(CS(=O)(=O)c2nnc3c(=O)n(-c4cccc(C(F)(F)F)c4C)ccn23)c([2H])c1[2H] [Compound 135, deuterated-7-[2-methyl-3-(trifluoromethyl)phenyl]-3-[(phenyl-(d5)-methyl)sulfonyl]-1,2,4-triazolo[4,3-a]pyrazin-8(7H)-one] | 23.3
[2H]c1c([2H])c([2H])c(C([2H])([2H])Sc2nnc3c(=O)n(-c4cccc(Cl)c4C)ccn23)c([2H])c1[2H] [Compound 34] | 148
Cc1cccc(CSc2nnc3c(=O)n(-c4cccc(Cl)c4C)ccn23)c1F [Compound 55, 7-(3-chloro-2-methylphenyl)-3-(2-fluoro-3-methylbenzylthio)-[1,2,4]triazolo[4,3-a]pyrazin-8(7H)-one] | 432
Cc1c(Cl)cccc1-n1ccn2c(SCc3ccccc3-c3cccnc3)nnc2c1=O [Compound 36, 7-(3-chloro-2-methylphenyl)-3-(2-(pyridin-3-yl)benzytthio)-[1,2,4]triazolo[4,3-a]pyrazin-8(7H)-one] | 147
O=c1c2nnc(SCc3ccccc3)n2ccn1-c1cccc(Cl)c1Cl [Compound 95, 3-(benzylthio)-7-(2,3-dichlorophenyl)-[1,2,4]triazolo[4,3-a]pyrazin-8(7H)-one] | 110
CCc1ccccc1CSc1nnc2c(=O)n(-c3cccc(Cl)c3C)ccn12 [Compound 35, 7-(3-chloro-2-methylphenyl)-3-(2-ethylbenzylthio)-[1,2,4]triazolo[4,3-a]pyrazin-8(7H)-one] | 213
Cc1c(Cl)cccc1-n1ccn2c(SCc3ccccc3Oc3ccccc3)nnc2c1=O [Compound 30, 7-(3-chloro-2-methylphenyl)-3-(2-phenoxybenzylthio)-[1,2,4]triazolo[4,3-a]pyrazin-8(7H)-one] | 67

The remaining compounds from weak to strong by IC50, led by results:

IC50 [nM] | SMILES
3630 | O=c1c2nnc(SCc3ccccc3)n2ccn1-c1cccc2ccccc12 [Compound 29, 3-(benzylthio)-7-(naphthalen-1-yl)-[1,2,4]-triazolo[4,3-a]pyrazin-8(7H)-one]
389 | Cc1c(Cl)cccc1-n1ccn2c(SCc3c(F)cccc3F)nnc2c1=O [Compound 105, 7-(3-chloro-2-methylphenyl)-3-(2,6-difluorobenzylthio)-[1,2,4]triazolo[4,3-a]pyrazin-8(7H)-one]
387 | Cc1c(Cl)cccc1-n1ccn2c(SCc3c(F)c(F)c(F)c(F)c3F)nnc2c1=O [Compound 106, 7-(3-chloro-2-methylphenyl)-3-(perfluorobenzylthio)-[1,2,4]triazolo[4,3-a]pyrazin-8(7H)-one]
176 | Cc1c(Cl)cccc1-n1ccn2c(SCc3ccccc3Cc3ccccc3)nnc2c1=O [Compound 45, 3-(2-benzylbenzylthio)-7-(3-chloro-2-methylphenyl)-[1,2,4]triazolo[4,3-a]pyrazin-8(7H)-one]
130 | Cc1c(-n2ccn3c(SCc4cccc(F)c4Cl)nnc3c2=O)cccc1C(F)(F)F [Compound 13, 3-(2-chloro-3-fluorobenzylthio)-7-(2-methyl-3-(trifluoromethyl)phenyl)-[1,2,4]triazolo[4,3-a]pyrazin-8(7H)-one]
106 | Cc1c(Cl)cccc1-n1ccn2c(N(Cc3ccccc3)Cc3ccccc3)nnc2c1=O [Compound 170, 7-(3-chloro-2-methylphenyl)-3-(dibenzylamino)-[1,2,4]triazolo[4,3-a]pyrazin-8(7H)-one]
106 | Cc1c(-n2ccn3c(SCc4ccccc4I)nnc3c2=O)cccc1C(F)(F)F [Compound 11]
91.4 | O=c1c2nnc(SCc3cc(Cl)cc(Cl)c3)n2ccn1-c1cccc(C(F)(F)F)c1Cl [Compound 60, 7-(2-chloro-3-(trifluorornethyl)phenyl)-3-(3,5-dichlorobenzylthio)-[1,2,4]triazolo[4,3-a]pyrazin-8(7H)-one]
85.7 | [2H]c1c([2H])c([2H])c(CSc2nnc3c(=O)n(-c4cccc(Cl)c4C)ccn23)c([2H])c1[2H] [Compound 33]
47 | Cc1c(Cl)cccc1-n1ccn2c(S(=O)(=O)Cc3ccc(F)cc3Cl)nnc2c1=O [Compound 148, 7-(3-chloro-2-methylphenyl)-3-(2-chloro-4-fluorobenzylsulfonyl)-[1,2,4]triazolo[4,3-a]pyrazin-8(7H)-one]
44.9 | O=c1c2nnc(SCc3ccccc3)n2ccn1-c1cccc(C(F)(F)F)c1Cl [Compound 61, 3-(benzylthio)-7-(2-chloro-3-(trifluoromethyl)phenyl)-[1,2,4]triazolo[4,3-a]pyrazin-8(7H)-one]
30.4 | Cc1cccc(-c2ccccc2CS(=O)(=O)c2nnc3c(=O)n(-c4cccc(C(F)(F)F)c4C)ccn23)c1 [Compound 137]
17.3 | O=c1c2nnc(SCc3ccccc3-c3ccccc3)n2ccn1-c1cccc(C(F)(F)F)c1Cl [Compound 48, 3-(biphenyl-2-ylmethylthio)-7-(2-chloro-3-(trifluoromethyl)phenyl)-[1,2,4]triazolo[4,3-a]pyrazin-8(7H)-one]
15.9 | Cc1c(-n2ccn3c(SCc4ccccc4-c4ccccc4)nnc3c2=O)cccc1C(F)(F)F [Compound 49, 3-(biphenyl-2-ylmethylthio)-7-(2-methyl-3-(trifluoromethyl)phenyl)-[1,2,4]triazolo[4,3-a]pyrazin-8(7H)-one]
